Reference: BindingDB's records for patent US20250313563 (The Broad Institute, 2025)
Where “and” joins values, the source holds several entries; their conditions need not be identical. Equal entries are not always repeated.

Tests used:
[1] = biological target: Glycogen synthase kinase-3 alpha (Homo sapiens, UniProt P49840); experiment: TR-FRET Assay
Method in brief: (§1)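 30 min preinc w/ cpd in assay buffer → kinase rxn → EDTA quench → add detection mix (40 nM SA-d2, 2 nM Tb-pSer641 Ab) → TR-FRET read.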

[2] = biological target: Glycogen synthase kinase-3 beta (Homo sapiens, UniProt P49841); experiment: TR-FRET Assay
Chain of Glycogen synthase kinase-3 beta (P49841 whole entry): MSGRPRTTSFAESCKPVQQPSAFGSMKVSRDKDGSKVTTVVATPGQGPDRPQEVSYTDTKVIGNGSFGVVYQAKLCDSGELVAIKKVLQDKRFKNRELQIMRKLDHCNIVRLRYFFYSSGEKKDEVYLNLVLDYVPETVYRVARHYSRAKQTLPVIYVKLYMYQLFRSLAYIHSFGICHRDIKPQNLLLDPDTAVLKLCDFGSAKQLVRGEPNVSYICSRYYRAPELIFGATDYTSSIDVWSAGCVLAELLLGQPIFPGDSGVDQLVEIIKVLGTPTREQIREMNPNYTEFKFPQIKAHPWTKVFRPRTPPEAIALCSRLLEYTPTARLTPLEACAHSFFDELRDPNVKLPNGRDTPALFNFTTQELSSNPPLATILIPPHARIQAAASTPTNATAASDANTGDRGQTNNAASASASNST
Method in brief: as §1

Chain of Glycogen synthase kinase-3 alpha (P49840 whole entry): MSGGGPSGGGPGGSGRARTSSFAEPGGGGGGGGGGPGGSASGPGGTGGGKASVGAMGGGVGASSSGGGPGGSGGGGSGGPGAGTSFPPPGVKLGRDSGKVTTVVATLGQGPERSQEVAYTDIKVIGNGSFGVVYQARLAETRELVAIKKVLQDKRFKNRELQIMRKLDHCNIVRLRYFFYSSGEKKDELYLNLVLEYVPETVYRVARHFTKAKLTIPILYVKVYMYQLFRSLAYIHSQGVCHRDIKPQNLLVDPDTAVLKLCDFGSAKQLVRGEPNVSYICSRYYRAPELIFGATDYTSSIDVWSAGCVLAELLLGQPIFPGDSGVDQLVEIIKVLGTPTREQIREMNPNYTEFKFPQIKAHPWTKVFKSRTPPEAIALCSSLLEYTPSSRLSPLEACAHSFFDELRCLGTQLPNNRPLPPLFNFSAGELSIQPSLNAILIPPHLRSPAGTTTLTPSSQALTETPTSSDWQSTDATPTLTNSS

**Q.** Which IC50 [1] does the source give for `CCCc1cc(-c2cccc(C3(CC)C4=CN=NC4NC4=C3C(=O)CC(C)(C)C4)c2)ccn1` (centres undefined) [US20250313563, Compound 945467] here?
**A.** < 100 nM

**Q.** What about the IC50 [2] of the same compound?
**A.** 100 to 1000 nM

**Q.** What does the source list for `CCC1(c2cccc(N3CCCCC3)c2)C2=C(CC(C)(C)CC2=O)NC2N=NC(C)=C21` (centres undefined) [US20250313563, Compound 877311]?
**A.** IC50 [1]: < 100 nM; IC50 [2]: < 100 nM

**Q.** `CC1(C)CC(=O)C2=C(C1)NC1=C(CN=N1)[C@@]21COC2(CN(S(C)(=O)=O)C2)C1` [US20250313563, Compound 913057] was tested. Which IC50 [1] did it give?
**A.** < 100 nM

**Q.** And the IC50 [2]?
**A.** < 100 nM

**Q.** Which IC50 [1] does the source give for `C[C@@H]1CC[C@@]2(C1)C1=C(N=NC1)NC1=C2C(=O)CC(C)(C)C1` [US20250313563, Compound 897750] here?
**A.** < 100 nM

**Q.** What about the IC50 [2] of the same compound?
**A.** < 100 nM

**Q.** For `CCC(C)C(=O)N1CC2(C1)CC1(CO2)C2=C(N=NC2)NC2=C1C(=O)CC(C)(C)C2` (centres undefined) [US20250313563, Compound 947270], which IC50 [1] is on record?
**A.** < 100 nM

**Q.** What about the IC50 [2] of the same compound?
**A.** 100 to 1000 nM

**Q.** With `CC1(C)CC(=O)C2=C(C1)NC1N=NC=C1C21CCCN(c2ccncn2)CC1` (centres undefined) [US20250313563, Compound 917145] as the compound, how does the IC50 [1] read?
**A.** 1000 to 5000 nM

**Q.** And the IC50 [2]?
**A.** 1000 to 5000 nM

**Q.** What does the source list for `CCC1(c2cccc(N3CCOCC3)c2)C2=CN=NC2NC2=C1C(=O)NC(C)(C)C2` (centres undefined) [US20250313563, Compound 945602]?
**A.** IC50 [1]: 1000 to 5000 nM; IC50 [2]: > 5000 nM

**Q.** For `CC[C@]1(c2ccccc2)C2=CN=NC2NC2=C1C(=O)[C@H](F)C(C)(C)C2` (some centres undefined) [US20250313563, Compound 957406], which IC50 [1] is on record?
**A.** > 5000 nM

**Q.** What about the IC50 [2] of the same compound?
**A.** > 5000 nM

**Q.** Which IC50 [1] does the source give for `CCC1(c2cccc(CS(C)(=O)=O)c2)C2=CN=NC2NC2=C1C(=O)CC(C)(C)C2` (centres undefined) [US20250313563, Compound 945601] here?
**A.** 100 to 1000 nM

**Q.** And the IC50 [2]?
**A.** 100 to 1000 nM

**Q.** What does the source list for `CC[C@@]1(c2cccc(-c3ccncc3C)c2)C2=CN=NC2NC2=C1C(=O)N[C@@]1(CCOC1)C2` (some centres undefined) [US20250313563, Compound 948644]?
**A.** IC50 [1]: < 100 nM; IC50 [2]: < 100 nM

**Q.** What does the source list for `CC[C@@]1(c2cccc(-c3ccnc(C)c3)c2)C2=CN=NC2NC2=C1C(=O)C[C@H](C)C2` (some centres undefined) [US20250313563, Compound 932657]?
**A.** IC50 [1]: < 100 nM; IC50 [2]: 1000 to 5000 nM

**Q.** Which results are given for `CC1(C)CC(=O)C2=C(C1)NC1=C(CN=N1)[C@@]21CCO[C@H](C(F)(F)F)C1` [US20250313563, Compound 884022]?
**A.** IC50 [1]: 100 to 1000 nM; IC50 [2]: 100 to 1000 nM

**Q.** How did the IC50 [1] turn out when `CCC1(c2cccc(N(C)c3ccnc(C(F)(F)F)c3)c2)C2=CN=NC2NC2=C1C(=O)CC(C)(C)C2` (centres undefined) [US20250313563, Compound 913254] was run?
**A.** < 100 nM

**Q.** And the IC50 [2]?
**A.** < 100 nM

**Q.** `CC[C@@]1(c2cccc(Cl)c2)C2=C(CC(C)(C)CC2=O)NC2N=NC(Br)=C21` (some centres undefined) [US20250313563, Compound 801315] was tested. Which IC50 [1] did it give?
**A.** 100 to 1000 nM

**Q.** What about the IC50 [2] of the same compound?
**A.** 100 to 1000 nM

**Q.** Which results are given for `CC[C@]1(c2cccc(N3CCCCC3)c2)C2=C(CC(C)(C)NC2=O)NC2N=NC(C(F)(F)F)=C21` (some centres undefined) [US20250313563, Compound 949178]?
**A.** IC50 [1]: 100 to 1000 nM; IC50 [2]: 1000 to 5000 nM

**Q.** How did the IC50 [1] turn out when `CC[C@@]1(c2cccc(-c3cnc(C)n3C)c2)C2=CN=NC2NC2=C1C(=O)CC(C)(C)C2` (some centres undefined) [US20250313563, Compound 945612] was run?
**A.** 1000 to 5000 nM

**Q.** What about the IC50 [2] of the same compound?
**A.** > 5000 nM

**Q.** With `CCC1(c2cccc(S(C)(=O)=O)c2)C2=CN=NC2NC2=C1C(=O)CC(C)(C)C2` (centres undefined) [US20250313563, Compound 819561] as the compound, how does the IC50 [1] read?
**A.** < 100 nM

**Q.** And the IC50 [2]?
**A.** < 100 nM

**Q.** Which results are given for `CC[C@]1(c2cccc(S(=O)(=O)C3CC3)c2)C2=CN=NC2NC2=C1C(=O)NC(C)(C)C2` (some centres undefined) [US20250313563, Compound 947803]?
**A.** IC50 [1]: < 100 nM; IC50 [2]: < 100 nM

**Q.** `CCC1(c2cccc(N3CCc4cnccc4C3)c2)C2=CN=NC2NC2=C1C(=O)CC(C)(C)C2` (centres undefined) [US20250313563, Compound 929449] was tested. Which IC50 [1] did it give?
**A.** 1000 to 5000 nM

**Q.** What about the IC50 [2] of the same compound?
**A.** 1000 to 5000 nM

**Q.** Which IC50 [1] does the source give for `CCC1(c2cccc(N(C)c3cccc(OC)n3)c2)C2=CN=NC2NC2=C1C(=O)CC(C)(C)C2` (centres undefined) [US20250313563, Compound 913121] here?
**A.** < 100 nM

**Q.** What about the IC50 [2] of the same compound?
**A.** 100 to 1000 nM

**Q.** Which results are given for `CC[C@]1(c2cccc(-c3ccnc4c3CCC4)c2)C2=CN=NC2NC2=C1C(=O)NC(C)(C)C2` (some centres undefined) [US20250313563, Compound 948313]?
**A.** IC50 [1]: < 100 nM and 100 to 1000 nM; IC50 [2]: < 100 nM and 1000 to 5000 nM

**Q.** With `CC1(C)CC(=O)C2=C(C1)NC1=C(CN=N1)C21CSC1` [US20250313563, Compound 889567] as the compound, how does the IC50 [1] read?
**A.** < 100 nM

**Q.** And the IC50 [2]?
**A.** 100 to 1000 nM
